According to US20230106943A1, “ENGINEERED ANTIMICROBIAL PEPTIDES AND USAGE THEREOF” (Peptilogics, Inc., priority 2021, published 2023):
Several values for one entry are separate records, joined by “and”; a condition that tells them apart may be missing. Equal entries are not always repeated. No end group written: not given here.

Assays:
[1] = Stability of 5 mg/mL SEQ ID NO: 1 solution pH 5.0 stored at 40° C. or −20° C. (content, pH, HPLC area %); type: physicochemical; details: for level of impurity at RRT 0.98: 5 mg/mL solution pH 5.0
Procedure: Enhanced stability was shown of the peptide formulation after 54 days of storage at 40° C. as a liquid solution with a concentration of 5 mg/mL of SEQ ID NO: 1 at pH of 5.0. FIG. 4 depict the overlaid chromatograph of SEQ ID NO: 1 after 7 days at 40° C. (bottom graph) and after 54 days at 40° C. (top graph).

[2] = Example 4 stability of concentrated solutions: UV-Vis Assay (method 78933); type: physicochemical
Procedure: The peptide formulation of SEQ ID NO: 1 dissolved in a saline solution with a pH of 5.0±0.1 was tested for stability under either −20° C. or 40° C. with 75% relative humidity (RH). […]

In the case of “RRWVRRVRRVWRRVVRVVRRWVRR-NH2 [SEQ ID NO: 1]”, the “level of impurity at RRT 0.98” value ([1]; 7 days at 40° C.) is reported as 0.4%, the “level of impurity at RRT 0.98” value ([1]; 54 days at 40° C.) is reported as 1.1% and the “Main peak SEQ ID NO: 1 area %” value ([1]; 7 days/40° C.) is reported as 97.2% and 97.1%. For the same substance, the “SEQ ID NO: 1 content” value ([1]; 7 days/40° C.) was 5.05 mg/mL and 5.11 mg/mL, the “Solution pH” value ([1]; 7 days/40° C.) was 4.98 and 5.02 and the “Main peak SEQ ID NO: 1 area %” value ([1]; 7 days/−20° C.) was 97.2%. For the same substance, the “SEQ ID NO: 1 content” value ([1]; 7 days/−20° C.) was 5.11 mg/mL, the “Main peak SEQ ID NO: 1 area %” value ([1]; 14 days/40° C.) was 96.2% and 94.7% and the “SEQ ID NO: 1 content” value ([1]; 14 days/40° C.) was 5.05 mg/mL and 5.01 mg/mL. For the same substance, the “Solution pH” value ([1]; 14 days/40° C.) was 5.01 and 5.00, the “SEQ ID NO: 1 content” value ([1]; 14 days/−20° C.) was 5.08 mg/mL and the “Solution pH” value ([1]; 14 days/−20° C.) was 4.97. For the same substance, the “Main peak SEQ ID NO: 1 area %” value ([1]; 54 days/40° C.) was 95.6%, the “SEQ ID NO: 1 content” value ([1]; 54 days/40° C.) was 4.99 mg/mL and the “Solution pH” value ([1]; 54 days/40° C.) was 4.96. For the same substance, the “Main peak SEQ ID NO: 1 area %” value ([1]; 54 days/−20° C.) was 96.9%, the “Area % of concurrent analytical standard” value ([1]; standard run with the 7 days samples) was 97.1 ± 0.4% and the “Area % of concurrent analytical standard” value ([1]; standard run with the 14 days samples) was 95.5 ± 0.5%. For the same substance, the “Area % of concurrent analytical standard” value ([1]; standard run with the 54 days samples) was 96.8 ± 0.8%, the “UV-Vis Assay” value ([2]; 15.3 mg/mL solution, 40° C. and 75% RH, 1 Month) was 102.0% and the “UV-Vis Assay” value ([2]; 15.3 mg/mL solution, 40° C. and 75% RH, 2 Month) was 102.2%. The “UV-Vis Assay” value ([2]; 15.3 mg/mL solution, 40° C. and 75% RH, 3 Month) was 103.9%, the “UV-Vis Assay” value ([2]; 15.3 mg/mL solution, 40° C. and 75% RH, 6 Month) was 102.5% and the “UV-Vis Assay” value ([2]; 15.3 mg/mL solution, −20° C., 0 Month) was 102.0%. The “UV-Vis Assay” value ([2]; 15.3 mg/mL solution, −20° C., 1 Month) was 101.5%, the “UV-Vis Assay” value ([2]; 15.3 mg/mL solution, −20° C., 2 Month) was 104.0% and the “UV-Vis Assay” value ([2]; 15.3 mg/mL solution, −20° C., 3 Month) was 105.1%. The “UV-Vis Assay” value ([2]; 15.3 mg/mL solution, −20° C., 6 Month) was 103.9%, the “UV-Vis Assay” value ([2]; 15.3 mg/mL solution, −20° C., 9 Month) was 103.1% and the “UV-Vis Assay” value ([2]; 36.7 mg/mL solution, 40° C. and 75% RH, 1 Month) was 100.3%. The “UV-Vis Assay” value ([2]; 36.7 mg/mL solution, 40° C. and 75% RH, 2 Month) was 101.3%, the “UV-Vis Assay” value ([2]; 36.7 mg/mL solution, 40° C. and 75% RH, 3 Month) was 99.2% and the “UV-Vis Assay” value ([2]; 36.7 mg/mL solution, 40° C. and 75% RH, 6 Month) was 100.1%. The “UV-Vis Assay” value ([2]; 36.7 mg/mL solution, −20° C., 0 Month) was 98.1%, the “UV-Vis Assay” value ([2]; 36.7 mg/mL solution, −20° C., 1 Month) was 100.0% and the “UV-Vis Assay” value ([2]; 36.7 mg/mL solution, −20° C., 2 Month) was 100.6%. The “UV-Vis Assay” value ([2]; 36.7 mg/mL solution, −20° C., 3 Month) was 101.7%, the “UV-Vis Assay” value ([2]; 36.7 mg/mL solution, −20° C., 6 Month) was 99.5% and the “UV-Vis Assay” value ([2]; 36.7 mg/mL solution, −20° C., 9 Month) was 100.3%. For the same substance, the “UV-Vis Assay” value ([2]; 72.4 mg/mL solution, 40° C. and 75% RH, 1 Month) was 97.8%, the “UV-Vis Assay” value ([2]; 72.4 mg/mL solution, 40° C. and 75% RH, 2 Month) was 98.6% and the “UV-Vis Assay” value ([2]; 72.4 mg/mL solution, 40° C. and 75% RH, 3 Month) was 93.4%. The “UV-Vis Assay” value ([2]; 72.4 mg/mL solution, 40° C. and 75% RH, 6 Month) was 95.4%, the “UV-Vis Assay” value ([2]; 72.4 mg/mL solution, −20° C., 0 Month) was 90.1% and the “UV-Vis Assay” value ([2]; 72.4 mg/mL solution, −20° C., 1 Month) was 97.6%. The “UV-Vis Assay” value ([2]; 72.4 mg/mL solution, −20° C., 2 Month) was 98.2%, the “UV-Vis Assay” value ([2]; 72.4 mg/mL solution, −20° C., 3 Month) was 94.5% and the “UV-Vis Assay” value ([2]; 72.4 mg/mL solution, −20° C., 6 Month) was 97.0%. The “UV-Vis Assay” value ([2]; 72.4 mg/mL solution, −20° C., 9 Month) was 99.0% and the “UV-Vis Assay” value ([2]; 81.4 mg/mL solution, −20° C., 0 Month) was 105.0 % LC.
